Assay results reported in paper PMC8129988 (Inorganic Chemistry Frontiers, 2021).

Tests used:
[1] = test system: FGFR3-driven UM-UC-14 xenografts; assay: UM-UC-14 xenograft experiment; type: in vivo, C.B.17/SCID mice; settings: 10 mg kg^-1 i.p., three times a week for two weeks
Description: Based on this promising in vitro data, the antitumor activity of our novel cobalt(III) complexes Co(acac)2LPon and Co(Meacac)2LPon was evaluated in xenograft mouse models. As a first in vivo experiment, BCR-ABL-driven K-562 cells were injected subcutaneously (s.c.) and treated intraperitoneally (i.p.) with the test compounds at 10 mg kg^−1 or the respective amount of solvent three times a week, for two weeks. Treatment with our novel derivatives was well tolerated and even after repeated i.p. applications no substantial body weight loss was observed (Fig. S13A ^†). […] Consequently, anticancer activity of Co(acac)2LPon was also investigated against FGFR3-driven UM-UC-14 xenografts using the identical treatment regime.
Fig. 11 In vivo anticancer activity of the investigated cobalt(III) complexes. […] Tumor sizes were evaluated by caliper measurement. […] Statistical significance was calculated by two-way ANOVA with Sidak multiple comparison test with p < 0.05(*); <0.01 (**).
Eight-to nine-week-old male C.B.17/SCID mice were bread in-house (originally Harlan) and were kept in pathogen-free conditions and controlled environment with 12 h light–dark cycle. […] Tumor growth was evaluated by daily recording of tumor size by caliper measurement. […]

cyclic voltammetry = type: physicochemical; settings: DMF, 0.2 M [n-Bu4N][BF4], 1.5 mM complex, scan rate 100 mV s^-1
Description: Since the redox potential is a crucial characteristic for the activation of cobalt(III)-based prodrugs systems, we investigated the novel complexes by cyclic voltammetry in comparison to Co(acac)2LEGFR. Measurements were performed in dimethylformamide (DMF) (+0.2 M [n-Bu4N][BF4]) at a scan speed of 100 mV s^−1. […] Even at a higher scan speed of 1000 mV s^−1, the redox processes were still completely irreversible for all complexes (Fig. S5 ^†).
The compounds were dissolved in DMF (+0.2 M [n-Bu4N][BF4]) to obtain a final concentration of 1.5 mM. Electrochemical experiments were conducted on an EG&G PARC 273A potentiostat/galvanostat with a scan rate of 100–1000 mV s^−1 at room temperature. Argon was bubbled through the solution before every measurement to remove oxygen. A three-electrode configuration cell was used with a glassy carbon electrode as working electrode, which was polished before every measurement. The reference electrode was Ag/Ag^+/ACN (10 mM AgNO3) and the auxiliary electrode was a platinum wire. The potentials were referenced to an internal standard redox couple of ferrocenium/ferrocene and calculated to the NHE (E1/2 = +0.72 V vs. NHE).[63] […] Redox potentials measured relative to the Ag/AgCl/KCl (3.5 M) reference electrode and converted to the NHE using +0.205 V. Measurements were at least repeated three times and the mean values were calculated.

[2] = serum stability in fetal calf serum (HPLC-MS); type: in vitro ADME; settings: 37 °C
Description: Therefore, we only investigated the stability of the novel complexes in fetal calf serum (FCS). As reference again Co(acac)2LEGFR[26] was included. The complexes were dissolved in 50 mM phosphate puffer and mixed 1 : 10 with fetal calf serum (FCS; buffered with 150 mM phosphate buffer to keep a stable pH of 7.4) to a final concentration of 50 μM. The samples were incubated at 37 °C and after 0, 2, 4, 6, 24 and 26 h extracted with acetonitrile and measured by HPLC-MS. […] This indeed confirms, that by avoiding the direct attachment of the ethylenediamine moiety to an aromatic ring system, complexes with much higher stability can be generated. Since no distinct difference in stability between Co(acac)2LPon and Co(Meacac)2LPon within 26 h could be observed, measurements were repeated up to 72 h.
For serum stability measurements, 135 μL FCS, buffered with 150 mM phosphate (Na2HPO4/NaH2PO4) to maintain a pH value of 7.4, were mixed with 15 μL of a 500 μM stock solution of the respective complex in 50 mM phosphate buffer to reach a final concentration of 50 μM. The samples were incubated at 37 °C. At different time points to 20 μL serum 40 μL of ACN were added. After vigorously shaking for 2 min the suspension was centrifuged at 6000 rpm for 10 min. The supernatant was taken with a syringe and directly measured via HPLC-MS. The samples were analyzed on an Agilent 1260 Infinity system using a Waters Atlantis T3 column (150 mm × 4.6 mm) coupled to a Bruker Amazon SL ESI-IT mass spectrometer. Water and acetonitrile (both containing 0.1% formic acid) were used as eluents with a gradient of 1–99% acetonitrile within 29 min.

Compound: CC(=O)C=C(C)[O-].CC(=O)C=C(C)[O-].Cc1ccc(C(=O)Nc2ccc(CNCCN)c(C(F)(F)F)c2)cc1C#Cc1cnc2cccnn12.O=C(O)C(F)(F)F.[Co+3] [Co(acac)2LPon, Bis(2,4-pentanedionato)N-(4-(((2-aminoethyl)amino)methyl)-3-(trifluoromethyl)phenyl)-3-(imidazo[1,2-b]pyridazin-3-ylethynyl)-4-methylbenzamide cobalt(III) 2,2,2-trifluoroacetate]
- body weight [1]: without significant impact on body weight
- tumor volumes vs control [1]: significant reduction of tumor volumes
- cathodic peak potential (Co(III) to Co(II), irreversible) (cyclic voltammetry): −315 mV vs. NHE
- intact complex remaining in FCS ([2]; 26 h, pH 7.4, 50 μM): ~90%
- intact compound remaining in FCS ([2]; 72 h, pH 7.4): ~70%
